Source: the SangsterLogP compilation

| SMILES | logP |
| --- | --- |
| C/C=C/C=C/C(=O)N1Cc2cc(OCCc3nc(/C(=C/C)CC)oc3C)ccc2C[C@H]1C(=O)O | 2.75 |
| CCC(O)/C=C/C(=O)N1Cc2cc(OCCc3coc(/C=C/CCCC(C)C)n3)ccc2CC1C(=O)O (configuration not stated) | 3.33 |
| C/C=C/C=C/C(=O)N1Cc2cc(OCCc3nc(/C=C/CCC(C)C)oc3C)ccc2C[C@H]1C(=O)O | 3.81 |
| C/C=C/C=C/C(=O)N1Cc2cc(OCCc3nc(/C=C/CC(C)(C)C)oc3C)ccc2C[C@H]1C(=O)O | 3.59 |
| CCCCCC(=O)N1Cc2cc(OCCc3coc(/C=C/CCCC(C)C)n3)ccc2CC1C(=O)O (configuration not stated) | 4.34 |
| CCOCCC(=O)N1Cc2cc(OCCc3coc(/C=C/CCCC(C)C)n3)ccc2CC1C(=O)O (configuration not stated) | 3.48 |
| C/C=C/C=C/C(=O)N1Cc2cc(OCCc3nc(/C(C)=C/CC)oc3C)ccc2C[C@H]1C(=O)O | 2.88 |
| C=CCCC(=O)N1Cc2cc(OCCc3nc(/C=C/CCC(C)C)oc3C)ccc2C[C@H]1C(=O)O | 3.76 |
| CC(C)CCC/C=C/c1nc(CCOc2ccc3c(c2)CN(C(=O)/C=C/c2cccs2)C(C(=O)O)C3)co1 (configuration not stated) | 3.95 |
| C/C=C/C=C/C(=O)N1Cc2cc(OCCc3nc(/C=C/C(C)CCC)oc3C)ccc2C[C@H]1C(=O)O (some centres not stated) | 3.84 |
| C/C=C/C=C/C(=O)N1Cc2cc(OCCc3nc(/C=C/CCCC(C)C)oc3C)ccc2CC1C(=O)O (configuration not stated) | 4.1 |
| C/C=C/C=C/C(=O)N1Cc2cc(OCCc3nc(C=CCC(C)C)oc3C)ccc2CC1C(=O)O (configuration not stated) | 3.23 |
| C/C=C/C=C/C(=O)N1Cc2cc(OCCc3nc(/C=C/C(C)(C)C)oc3C)ccc2C[C@H]1C(=O)O | 3.1 |
| CCC/C=C/C(=O)N1Cc2cc(OCCc3coc(/C=C/CCCC(C)C)n3)ccc2CC1C(=O)O (configuration not stated) | 4.04 |
| C/C=C/C=C/C(=O)N1Cc2cc(OCCc3nc(/C=C/C(C)C)oc3C)ccc2C[C@H]1C(=O)O | 2.77 |
| Cc1oc(/C=C/CCC(C)C)nc1CCOc1ccc2c(c1)CN(C(=O)/C=C/c1ccco1)[C@H](C(=O)O)C2 | 3.76 |

The remaining lines, values ahead:

| logP | SMILES |
| --- | --- |
| 3.76 | CC(C)CCC/C=C/c1nc(CCOc2ccc3c(c2)CN(C(=O)/C=C/c2ccco2)C(C(=O)O)C3)co1 (configuration not stated) |
| 4.09 | CC(C)=C/C=C/C(=O)N1Cc2cc(OCCc3coc(/C=C/CCCC(C)C)n3)ccc2CC1C(=O)O (configuration not stated) |
| 3.09 | Cc1oc(/C=C/CCC(C)C)nc1CCOc1ccc2c(c1)CN(C(=O)/C=C/C=C/CO)C(C(=O)O)C2 (configuration not stated) |
| 4.29 | C/C=C/C=C/C(=O)N1Cc2cc(OCCc3nc(/C(C)=C/CCC(C)C)oc3C)ccc2C[C@H]1C(=O)O |
| 4.03 | C=CCCCC(=O)N1Cc2cc(OCCc3coc(/C=C/CCCC(C)C)n3)ccc2CC1C(=O)O (configuration not stated) |
| 3.52 | CCOC/C=C/C(=O)N1Cc2cc(OCCc3coc(/C=C/CCCC(C)C)n3)ccc2CC1C(=O)O (configuration not stated) |
| 3.79 | C/C=C/C=C/C(=O)N1Cc2cc(OCCc3nc(CCCCC(C)C)oc3C)ccc2C[C@H]1C(=O)O |
| 3.52 | C/C=C/C=C/C(=O)N1Cc2cc(OCCc3nc(/C=C/C(C)(C)CC)oc3C)ccc2C[C@H]1C(=O)O |
| 3.69 | CC(C)CCC/C=C/c1nc(CCOc2ccc3c(c2)CN(C(=O)/C=C/C2CC2)C(C(=O)O)C3)co1 (configuration not stated) |
| 3.68 | C/C=C/C=C/C(=O)N1Cc2cc(OCCc3nc(/C=C/C(CC)CC)oc3C)ccc2C[C@H]1C(=O)O |
| 3.56 | CCO/C=C/C(=O)N1Cc2cc(OCCc3coc(/C=C/CCCC(C)C)n3)ccc2CC1C(=O)O (configuration not stated) |
